The test addresses T1, human mGlu5a receptor (Homo sapiens, UniProt P41594).
T1 construct: expressed in transfected cells
The test is described as follows: Intracellular Ca2+ mobilization assay (mGlu5 PAM). The following applies: for Emax: HEK293, maximal response in % of the maximal stimulatory effect obtained with saturating concentrations of L-glutamate, HEK-293 human mGlu5a cells, read-out: Eff. (%); for EC50: HEK-293 cells stably transfected with human mGlu5a receptor, L-glutamate added at EC20 (typically around 80 μM) after 10-30 min pre-incubation with test compound, read-out: EC50 (nM) mGlu5PAM. The format is cell-based. The method, then:
A monoclonal HEK-293 cell line stably transfected with a cDNA encoding for the human mGlu5a receptor was generated; for the work with mGlu5 Positive Allosteric Modulators (PAMs), a cell line with low receptor expression levels and low constitutive receptor activity was selected to allow the differentiation of agonistic versus PAM activity. Cells were cultured according to standard protocols (Freshney, 2000) in Dulbecco's Modified Eagle Medium with high glucose supplemented with 1 mM glutamine, 10% (vol/vol) heat-inactivated bovine calf serum, Penicillin/Streptomycin, 50 μg/ml hygromycin and 15 μg/ml blasticidin (all cell culture reagents and antibiotics from Invitrogen, Basel, Switzerland).
About 24 hrs before an experiment, 5×10^4 cells/well were seeded in poly-D-lysine coated, black/clear-bottomed 96-well plates. The cells were loaded with 2.5 μM Fluo-4AM in loading buffer (1×HBSS, 20 mM HEPES) for 1 hr at 37° C. and washed five times with loading buffer. The cells were transferred into a Functional Drug Screening System 7000 (Hamamatsu, Paris, France), and 11 half logarithmic serial dilutions of test compound at 37° C. were added and the cells were incubated for 10-30 min with on-line recording of fluorescence. Following this pre-incubation step, the agonist L-glutamate was added to the cells at a concentration corresponding to EC20 (typically around 80 μM) with on-line recording of fluorescence; in order to account for day-to-day variations in the responsiveness of cells, the EC20 of glutamate was determined immediately ahead of each experiment by recording of a full dose-response curve of glutamate.
Responses were measured as peak increase in fluorescence minus basal (i.e. fluorescence without addition of L-glutamate), normalized to the maximal stimulatory effect obtained with saturating concentrations of L-glutamate. Graphs were plotted with the % maximal stimulatory using XLfit, a curve fitting program that iteratively plots the data using Levenburg Marquardt algorithm. The single site competition analysis equation used was y=A+((B−A)/(1+((x/C)D))), where y is the % maximal stimulatory effect, A is the minimum y, B is the maximum y, C is the EC50, x is the log 10 of the concentration of the competing compound and D is the slope of the curve (the Hill Coefficient). From these curves the EC50 (concentration at which half maximal stimulation was achieved), the Hill coefficient as well as the maximal response in % of the maximal stimulatory effect obtained with saturating concentrations of L-glutamate were calculated.
A depression of the signal observed after addition of the EC20 concentration of L-glutamate was indicative of an inhibitory activity of the test compound.

SMILES strings stand for the structures.

T1 sequence (P41594 21-1180 isoform P41594-2 limits assumed): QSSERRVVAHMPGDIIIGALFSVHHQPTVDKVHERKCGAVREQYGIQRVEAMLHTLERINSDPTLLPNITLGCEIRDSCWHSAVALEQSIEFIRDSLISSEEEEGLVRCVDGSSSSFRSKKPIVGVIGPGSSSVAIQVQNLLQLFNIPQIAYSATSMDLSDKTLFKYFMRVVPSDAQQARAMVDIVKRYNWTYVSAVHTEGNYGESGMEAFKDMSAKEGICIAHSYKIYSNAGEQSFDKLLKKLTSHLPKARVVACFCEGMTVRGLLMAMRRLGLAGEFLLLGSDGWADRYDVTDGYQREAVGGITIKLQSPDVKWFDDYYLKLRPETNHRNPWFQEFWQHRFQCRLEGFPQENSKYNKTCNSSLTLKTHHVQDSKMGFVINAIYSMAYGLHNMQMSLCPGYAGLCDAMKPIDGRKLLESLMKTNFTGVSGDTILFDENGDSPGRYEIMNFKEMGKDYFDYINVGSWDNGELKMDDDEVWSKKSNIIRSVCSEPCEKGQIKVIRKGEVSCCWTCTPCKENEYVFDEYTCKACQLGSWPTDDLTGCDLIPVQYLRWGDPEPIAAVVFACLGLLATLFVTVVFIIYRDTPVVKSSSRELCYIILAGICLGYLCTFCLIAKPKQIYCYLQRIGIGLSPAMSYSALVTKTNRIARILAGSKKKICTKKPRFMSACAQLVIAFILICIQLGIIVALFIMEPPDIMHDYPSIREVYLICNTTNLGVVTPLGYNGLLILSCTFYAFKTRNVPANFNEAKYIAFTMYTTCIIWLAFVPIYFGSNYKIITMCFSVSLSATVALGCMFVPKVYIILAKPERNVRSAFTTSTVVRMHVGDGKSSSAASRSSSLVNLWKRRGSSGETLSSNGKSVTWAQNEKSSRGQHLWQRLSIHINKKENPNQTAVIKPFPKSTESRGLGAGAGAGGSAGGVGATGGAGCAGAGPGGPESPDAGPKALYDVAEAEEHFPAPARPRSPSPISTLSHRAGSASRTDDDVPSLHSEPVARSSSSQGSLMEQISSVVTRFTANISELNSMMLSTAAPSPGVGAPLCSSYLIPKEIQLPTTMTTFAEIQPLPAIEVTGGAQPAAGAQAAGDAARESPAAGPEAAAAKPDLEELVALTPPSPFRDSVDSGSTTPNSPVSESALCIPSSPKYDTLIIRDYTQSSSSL

Turning to `CN(C(=O)c1ccc(C#Cc2cc(F)ccc2F)cn1)C(C)(C)C` [Example 5, 5-(2,5-Difluoro-phenylethynyl)-pyridine-2-carboxylic Acid tert-butyl-methyl-amide], the Emax was determined as 42% and the EC50 turned out to be 12 nM.

In the case of `CN(C(=O)c1ccc(C#Cc2cccnc2)cn1)C(C)(C)C` [Example 6, 5-Pyridin-3-ylethynyl-pyridine-2-carboxylic Acid tert-butyl-methyl-amide], the Emax was 70% and the concentration for a half-maximal effect (EC50) worked out at 72 nM.

On to `CN(C(=O)c1ccc(C#Cc2cncc(Cl)c2)cn1)C(C)(C)C` [Example 7, 5-(5-Chloro-pyridin-3-ylethynyl)-pyridine-2-carboxylic Acid tert-butyl-methyl-amide], for which the Emax was 33% and the concentration giving a half-maximal response (EC50) turned out to be 17 nM.

For `CN(C(=O)c1ccc(C#Cc2cncc(F)c2)cn1)C(C)(C)C` [Example 8, 5-(5-Fluoro-pyridin-3-ylethynyl)-pyridine-2-carboxylic Acid tert-butyl-methyl-amide], the Emax was determined as 79% and the EC50 stood at 62 nM.

As to `CC(C)(C)NC(=O)c1ncc(C#Cc2ccc(F)cc2)cn1` [Example 9, 5-(4-Fluoro-phenylethynyl)-pyrimidine-2-carboxylic Acid tert-butylamide], the Emax was 90% and the concentration for a half-maximal effect (EC50) was 127 nM.

Regarding `CC(C)(C)NC(=O)c1ncc(C#Cc2cccc(F)c2)cn1` [Example 10, 5-(3-Fluoro-phenylethynyl)-pyrimidine-2-carboxylic Acid tert-butylamide], the Emax is 81% and the EC50 worked out at 36 nM.

`CN(C(=O)c1ncc(C#Cc2ccc(F)cc2)cn1)C(C)(C)C` [Example 11, 5-(4-Fluoro-phenylethynyl)-pyrimidine-2-carboxylic Acid tert-butyl-methyl-amide]: the Emax worked out at 69% and the EC50 was 34 nM.

`CN(C(=O)c1ncc(C#Cc2cccc(F)c2)cn1)C(C)(C)C` [Example 12, 5-(3-Fluoro-phenylethynyl)-pyrimidine-2-carboxylic Acid tert-butyl-methyl-amide]: the Emax was found to be 55% and the EC50 is 23 nM.

Regarding `Cc1cccc(C#Cc2cnc(C(=O)NC(C)(C)C)nc2)c1` [Example 13, 5-m-Tolylethynyl-pyrimidine-2-carboxylic Acid tert-butylamide], the Emax is 83% and the EC50 is 71 nM.

In the case of `CC(C)(C)NC(=O)c1ncc(C#Cc2cccc(Cl)c2)cn1` [Example 14, 5-(3-Chloro-phenylethynyl)-pyrimidine-2-carboxylic Acid tert-butylamide], the Emax was 95% and the EC50 was 111 nM.

With `CN(C(=O)c1ncc(C#Cc2cc(F)ccc2F)cn1)C(C)(C)C` [Example 15, 5-(2,5-Difluoro-phenylethynyl)-pyrimidine-2-carboxylic Acid tert-butyl-methyl-amide], the Emax was 32% and the EC50 amounted to 35 nM.

With `CN(C(=O)c1ncc(C#Cc2cncc(Cl)c2)cn1)C(C)(C)C` [Example 16, 5-(5-Chloro-pyridin-3-ylethynyl)-pyrimidine-2-carboxylic Acid tert-butyl-methyl-amide], the Emax amounted to 27% and the EC50 was 58 nM.

For `Cc1cc(C#Cc2cccc(F)c2)cnc1C(=O)N(C)C(C)(C)C` [Example 17, 5-(3-Fluoro-phenylethynyl)-3-methyl-pyridine-2-carboxylic Acid tert-butyl-methyl-amide], the Emax came out at 49% and the EC50 came out at 37 nM.

On to `Cc1cc(C#Cc2ccc(F)cc2)cnc1C(=O)N(C)C(C)(C)C` [Example 18, 5-(4-Fluoro-phenylethynyl)-3-methyl-pyridine-2-carboxylic Acid tert-butyl-methyl-amide], for which the Emax stood at 71% and the EC50 is 76 nM.

For `Cc1cc(C#Cc2cc(F)ccc2F)cnc1C(=O)N(C)C(C)(C)C` [Example 19, 5-(2,5-Difluoro-phenylethynyl)-3-methyl-pyridine-2-carboxylic Acid tert-butyl-methyl-amide], the Emax was 29% and the EC50 was determined as 33 nM.

As to `Cc1cc(C#Cc2cncc(Cl)c2)cnc1C(=O)N(C)C(C)(C)C` [Example 20, 5-(5-Chloro-pyridin-3-ylethynyl)-3-methyl-pyridine-2-carboxylic Acid tert-butyl-methyl-amide], the Emax was found to be 26% and the EC50 stood at 102 nM.

In the case of `CN(C(=O)c1ncc(C#Cc2cccc(F)c2)cc1F)C(C)(C)C` [Example 21, 3-Fluoro-5-(3-fluoro-phenylethynyl)-pyridine-2-carboxylic Acid tert-butyl-methyl-amide], the Emax is 54% and the EC50 came out at 18 nM.

Regarding `CN(C(=O)c1ncc(C#Cc2ccc(F)cc2)cc1F)C(C)(C)C` [Example 22, 3-Fluoro-5-(4-fluoro-phenylethynyl)-pyridine-2-carboxylic Acid tert-butyl-methyl-amide], the Emax amounted to 65% and the EC50 was 32 nM.

On to `CN(C(=O)c1ncc(C#Cc2cc(F)ccc2F)cc1F)C(C)(C)C` [Example 23, 5-(2,5-Difluoro-phenylethynyl)-3-fluoro-pyridine-2-carboxylic Acid tert-butyl-methyl-amide], for which the Emax was determined as 38% and the EC50 amounted to 10 nM.

Regarding `CN(C(=O)c1ncc(C#Cc2cncc(Cl)c2)cc1F)C(C)(C)C` [Example 24, 5-(5-Chloro-pyridin-3-ylethynyl)-3-fluoro-pyridine-2-carboxylic Acid tert-butyl-methyl-amide], the Emax turned out to be 29% and the EC50 worked out at 11 nM.

Regarding `CN(C(=O)c1ccc(C#Cc2cccc(F)c2)cn1)C1CCC1` [Example 25, 5-(3-Fluoro-phenylethynyl)-pyridine-2-carboxylic Acid cyclobutyl-methyl-amide], the Emax was found to be 56% and the EC50 came out at 32 nM.

`O=C(NC1COC1)c1ccc(C#Cc2cccc(F)c2)cn1` [Example 26, 5-(3-Fluoro-phenylethynyl)-pyridine-2-carboxylic Acid oxetan-3-ylamide]: the Emax worked out at 80% and the EC50 came to 43 nM.

As for `CN(C(=O)c1ccc(C#Cc2cccc(F)c2)cn1)C1(C)COC1` [Example 27, 5-(3-Fluoro-phenylethynyl)-pyridine-2-carboxylic Acid methyl-(3-methyl-oxetan-3-yl)-amide], the Emax came to 53% and the EC50 came out at 24 nM.

`CN(C(=O)c1ccc(C#Cc2ccc(F)cc2)cn1)C1(C)COC1` [Example 28, 5-(4-Fluoro-phenylethynyl)-pyridine-2-carboxylic Acid methyl-(3-methyl-oxetan-3-yl)-amide]: the Emax is 68% and the concentration for a half-maximal effect (EC50) is 37 nM.

For the compound `CN(C(=O)c1ccc(C#Cc2cc(F)ccc2F)cn1)C1(C)COC1` [Example 29, 5-(2,5-Difluoro-phenylethynyl)-pyridine-2-carboxylic Acid methyl-(3-methyl-oxetan-3-yl)-amide], the Emax was 45% and the EC50 stood at 21 nM.

In the case of `CN(C(=O)c1ccc(C#Cc2ccc(F)c(F)c2)cn1)C1(C)COC1` [Example 30, 5-(3,4-Difluoro-phenylethynyl)-pyridine-2-carboxylic Acid methyl-(3-methyl-oxetan-3-yl)-amide], the Emax is 50% and the EC50 worked out at 60 nM.

Consider `CN(C(=O)c1ccc(C#Cc2cccc(F)c2)cn1)C1(C)CC1` [Example 31, 5-(3-Fluoro-phenylethynyl)-pyridine-2-carboxylic Acid methyl-(1-methyl-cyclopropyl)-amide], for which the Emax was 43% and the EC50 amounted to 17 nM.

As to `CN(C(=O)c1ccc(C#Cc2ccc(F)cc2)cn1)C1(C)CC1` [Example 32, 5-(4-Fluoro-phenylethynyl)-pyridine-2-carboxylic Acid methyl-(1-methyl-cyclopropyl)-amide], the Emax was determined as 59% and the EC50 is 24 nM.

Regarding `CN(C(=O)c1ccc(C#Cc2cccc(Cl)c2)cn1)C1(C(F)(F)F)CC1` [Example 33, 5-(3-Chloro-phenylethynyl)-pyridine-2-carboxylic Acid methyl-(1-trifluoromethyl-cyclopropyl)-amide], the Emax came to 37% and the EC50 was found to be 33 nM.
